Measurements as given in ChEMBL document CHEMBL4602684, “Siderophores from the Entomopathogenic Fungus Beauveria bassiana” (J Nat Prod, 2020).
Structures can show the parent of a compound that is named as a salt. Active and inactive are the calls of the source. The calls are words filed in the database; no cut-off is given here.

Experiments:
[1] = Binding affinity to Fe3+ assessed as formation of Fe3+-compound complex at 100 ug/disk by CAS agar disk diffusion method
[2] = Binding affinity to Fe3+ assessed as formation of Fe3+-compound complex stoichiometry ratio of 3:1 by HRESIMS method
[3] = Binding affinity to Fe3+ assessed as formation of Fe3+-compound complex stoichiometry ratio of 1:1 by HRESIMS method
[4] = Binding affinity to Fe3+ assessed as formation of Fe3+-compound complex stoichiometry ratio of 2:1 by HRESIMS method
[5] = Binding affinity to Fe3+ assessed as formation of Fe3+-compound complex incubated for 22 hrs by liquid CAS assay
[6] = Binding affinity to Fe3+ assessed as formation of Fe3+-compound complex in presence of FeCl3 by HRESIMS method

| Activity [1] | Activity [2] | Activity [3] | Activity [4] | EC50 [5] [µM] | Activity [6] | SMILES |
| --- | --- | --- | --- | --- | --- | --- |
| inactive | inactive | Active | Active | – | – | C/C(=C\C(=O)N(O)CCC[C@@H]1NC(=O)[C@H](CCC[N+](=O)[O-])NC1=O)CCO |
| – | – | – | – | 20 | – | CC(=O)N(O)CCCCCNC(=O)CCC(=O)N(O)CCCCCNC(=O)CCC(=O)N(O)CCCCCN [DEFEROXAMINE MESYLATE] |
| Active | – | – | – | – | Active | C[C@@](O)(CCO)CC(=O)N(O)CCC[C@@H]1NC(=O)[C@H](CCCN(O)C(=O)C[C@](C)(O)CCO)NC1=O |
| Active | – | – | – | – | Active | C/C(=C\C(=O)N(O)CCC[C@@H]1NC(=O)[C@H](CCCN(O)C(=O)C[C@](C)(O)CCO[C@@H]2O[C@H](CO)[C@@H](O)[C@H](O)[C@@H]2O)NC1=O)CCO |
| Active | – | – | – | 15.7 | Active | C/C(=C\C(=O)N(O)CCC[C@@H]1NC(=O)[C@H](CCCN(O)C(=O)/C=C(\C)CCO[C@@H]2O[C@H](CO)[C@@H](O)[C@H](O)[C@@H]2O)NC1=O)CCOC(=O)[C@H](CCCN(O)C(=O)/C=C(\C)CCO[C@@H]1O[C@H](CO)[C@@H](O)[C@H](O)[C@@H]1O)[N+](C)(C)[O-] |
| Active | – | – | – | 13 | Active | C/C(=C\C(=O)N(O)CCC[C@@H]1NC(=O)[C@H](CCCN(O)C(=O)/C=C(\C)CCO)NC1=O)CCO |
| Active | – | – | – | – | Active | CO[C@H]1[C@H](O)[C@H](O)[C@H](OCC/C(C)=C/C(=O)N(O)CCC[C@@H]2NC(=O)[C@H](CCCN(O)C(=O)/C=C(\C)CCO)NC2=O)O[C@@H]1CO |
| inactive | inactive | Active | Active | – | – | CO[C@H]1[C@H](O)[C@H](O)[C@H](OCC/C(C)=C/C(=O)N(O)CCC[C@@H](C(=O)O)N(C)C)O[C@@H]1CO |
| Active | – | – | – | – | Active | C/C(=C\C(=O)N(O)CCC[C@@H]1NC(=O)[C@H](CCCN(O)C(=O)/C=C(\C)CCO[C@@H]2O[C@H](CO)[C@@H](O)[C@H](O)[C@@H]2O)NC1=O)CCO |
| Active | – | – | – | – | Active | CO[C@H]1[C@H](O)[C@H](O)[C@H](OCC[C@@](C)(O)CC(=O)N(O)CCC[C@@H]2NC(=O)[C@H](CCCN(O)C(=O)/C=C(\C)CCO)NC2=O)O[C@@H]1CO |
| inactive | – | – | – | – | – | C/C(=C\C(=O)N(O)CCC[C@@H](N)C(=O)O)CCO |
| inactive | – | – | – | – | inactive | C/C(=C\C(=O)NCCC[C@@H]1NC(=O)[C@H](CCCNC(=O)/C=C(\C)CCO)NC1=O)CCO |
| Active | – | – | – | – | Active | C/C(=C\C(=O)N(O)CCC[C@@H]1NC(=O)[C@H](CCCN(O)C(=O)C[C@](C)(O)CCO)NC1=O)CCO |
| inactive | inactive | Active | Active | – | – | CO[C@H]1[C@H](O)[C@H](O)[C@H](OCC/C(C)=C/C(=O)N(O)CCC[C@@H](C(=O)O)[N+](C)(C)[O-])O[C@@H]1CO |
